Laboratory results as given in PubChem BioAssay AID256 (DTP/NCI, 2004).
“And” between values parts separate entries of the source, which are not always exact repeats. Identical values can stand only once. Toxic doses and inconclusive results are not listed. The calls were made as follows: active = survival T/C of 150% or more; inactive = T/C below 125% in these data.

Tested on: CD2F1 mice, L1210 leukemia ip, survival T/C
Assay: NCI In Vivo Anticancer Drug Screen. Data for tumor model L1210 Leukemia (intraperitoneal) in CD2F1 (CDF1) mice
Conditions: higher = longer survival
Summary of the method: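 Read-out first: treated-group measurement over vehicle-control measurement, expressed as a ratio. Animals bore a transplanted tumor line and were dosed with compound or vehicle.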

[1] = endpoint: mean survival time, dose: 100.0 mg/kg/injection, schedule: Q04DX002 (ip), vehicle: saline with Tween-80
[2] = endpoint: mean survival time, dose: 200.0 mg/kg/injection, schedule: Q04DX002 (ip), vehicle: saline with Tween-80
[3] = endpoint: mean survival time, dose: 400.0 mg/kg/injection, schedule: Q04DX002 (ip), vehicle: saline with Tween-80
[4] = endpoint: mean survival time, dose: 100.0 mg/kg/injection, schedule: Q01DX001 (ip), vehicle: saline
[5] = endpoint: mean survival time, dose: 100.0 mg/kg/injection, schedule: Q04DX003 (ip), vehicle: saline with Tween-80
[6] = endpoint: mean survival time, dose: 200.0 mg/kg/injection, schedule: Q04DX003 (ip), vehicle: saline with Tween-80
[7] = endpoint: mean survival time, dose: 400.0 mg/kg/injection, schedule: Q04DX003 (ip), vehicle: saline with Tween-80
[8] = endpoint: mean survival time, dose: 100.0 mg/kg/injection, schedule: Q01DX001 (ip), vehicle: saline with Tween-80
[9] = endpoint: mean survival time, dose: 200.0 mg/kg/injection, schedule: Q01DX001 (ip), vehicle: saline with Tween-80
[10] = endpoint: mean survival time, dose: 100.0 mg/kg/injection, schedule: Q01DX009 (ip), vehicle: saline with Tween-80
[11] = endpoint: mean survival time, dose: 25.0 mg/kg/injection, schedule: Q01DX001 (ip), vehicle: saline

Measured: T/C

Cc1ccccc1-n1c(O)c(N=Nc2ccccc2)c(=O)n(-c2ccccc2)c1=S
inactive: endpoint: mean survival time, dose: 50.0 mg/kg/injection, schedule: Q04DX003 (ip), vehicle: Klucel (hydroxypropylcellulose) (HPC) 93 % of control | endpoint: mean survival time, dose: 100.0 mg/kg/injection, schedule: Q04DX003 (ip), vehicle: Klucel (hydroxypropylcellulose) (HPC) 94 % of control | endpoint: mean survival time, dose: 200.0 mg/kg/injection, schedule: Q04DX003 (ip), vehicle: Klucel (hydroxypropylcellulose) (HPC) 104 % of control

O=c1oc(/C=C/c2ccccc2)nc2ccccc12
inactive: [1] 100 % of control | [2] 100 % of control | [3] 103 % of control

CC(=O)O.CC(=O)O.O.[Fe]
inactive: [4] 98 % of control | endpoint: mean survival time, dose: 200.0 mg/kg/injection, schedule: Q01DX001 (ip), vehicle: saline 96 % of control | endpoint: mean survival time, dose: 400.0 mg/kg/injection, schedule: Q01DX001 (ip), vehicle: saline 100 % of control

CN1NC(c2ccccc2)C2CN(C3CCCCC3)C(=O)C21O (stereo not given)
inactive: [5] 92 % of control | [6] 88 % of control | [7] 101 % of control

Cc1ccc(S(=O)(=O)CC(=O)N2CCOCC2)cc1
inactive: endpoint: mean survival time, dose: 100.0 mg/kg/injection, schedule: Q04DX003 (ip), vehicle: saline 102 % of control | endpoint: mean survival time, dose: 200.0 mg/kg/injection, schedule: Q04DX003 (ip), vehicle: saline 96 % of control | endpoint: mean survival time, dose: 400.0 mg/kg/injection, schedule: Q04DX003 (ip), vehicle: saline 98 % of control

C1CCC(N(C2CCCCC2)C2CCCCC2)CC1
inactive: [8] 107 % of control | [9] 104 % of control | endpoint: mean survival time, dose: 300.0 mg/kg/injection, schedule: Q01DX001 (ip), vehicle: saline with Tween-80 96 % of control

Cc1[nH]c2ccc(-c3ccccc3)cc2c1CC(=O)OC(C)C
inactive: [1] 97 % of control | [2] 117 % of control | [3] 105 % of control

C1CNCOC1
inactive: endpoint: mean survival time, dose: 6.25 mg/kg/injection, schedule: Q01DX009 (ip), vehicle: saline 100 % of control | endpoint: mean survival time, dose: 12.5 mg/kg/injection, schedule: Q01DX009 (ip), vehicle: saline 95 % of control and 97 % of control | endpoint: mean survival time, dose: 25.0 mg/kg/injection, schedule: Q01DX009 (ip), vehicle: saline 100 % of control and 102 % of control | endpoint: mean survival time, dose: 50.0 mg/kg/injection, schedule: Q01DX009 (ip), vehicle: saline 101 % of control and 110 % of control | endpoint: mean survival time, dose: 100.0 mg/kg/injection, schedule: Q01DX009 (ip), vehicle: saline 106 % of control and 107 % of control | endpoint: mean survival time, dose: 200.0 mg/kg/injection, schedule: Q01DX009 (ip), vehicle: saline 100 % of control | endpoint: median survival time, dose: 6.25 mg/kg/injection, schedule: Q01DX009 (ip), vehicle: saline 100 % of control | endpoint: median survival time, dose: 12.5 mg/kg/injection, schedule: Q01DX009 (ip), vehicle: saline 102 % of control | endpoint: median survival time, dose: 25.0 mg/kg/injection, schedule: Q01DX009 (ip), vehicle: saline 107 % of control | endpoint: median survival time, dose: 50.0 mg/kg/injection, schedule: Q01DX009 (ip), vehicle: saline 107 % of control | endpoint: median survival time, dose: 100.0 mg/kg/injection, schedule: Q01DX009 (ip), vehicle: saline 112 % of control

CC(C)NC(=O)C1CC2c3cccc4[nH]cc(c34)CC2N(C)C1 (stereo not given)
inactive: endpoint: mean survival time, dose: 25.0 mg/kg/injection, schedule: Q01DX009 (ip), vehicle: saline with Tween-80 101 % of control | endpoint: mean survival time, dose: 50.0 mg/kg/injection, schedule: Q01DX009 (ip), vehicle: saline with Tween-80 98 % of control | endpoint: mean survival time, dose: 50.0 mg/kg/injection, schedule: Q04DX003 (ip), vehicle: saline with Tween-80 96 % of control | [10] 102 % of control | [5] 105 % of control

CN1C(=O)C(C)(C)C(=O)C1(C)C
inactive: [11] 103 % of control | endpoint: mean survival time, dose: 50.0 mg/kg/injection, schedule: Q01DX001 (ip), vehicle: saline 104 % of control | [4] 103 % of control

C/C(=C/C(=O)O)C(=O)O.[NH-]C1CCCCC1[NH-].[Pt+2]
inactive: endpoint: median survival time, dose: 3.12 mg/kg/injection, schedule: Q04DX003 (ip), vehicle: saline 100 % of control and 107 % of control | endpoint: median survival time, dose: 6.25 mg/kg/injection, schedule: Q04DX003 (ip), vehicle: saline 96 % of control and 109 % of control | endpoint: median survival time, dose: 12.5 mg/kg/injection, schedule: Q04DX003 (ip), vehicle: saline 108 % of control | endpoint: median survival time, dose: 25.0 mg/kg/injection, schedule: Q04DX003 (ip), vehicle: saline 116 % of control and 111 % of control | endpoint: median survival time, dose: 50.0 mg/kg/injection, schedule: Q04DX003 (ip), vehicle: saline 116 % of control and 120 % of control
active: endpoint: median survival time, dose: 200.0 mg/kg/injection, schedule: Q04DX003 (ip), vehicle: saline 153 % of control and 185 % of control

COc1cccc(OC)c1OC(=O)/C=C/C(=O)Oc1c(OC)cccc1OC
inactive: [10] 96 % of control | endpoint: mean survival time, dose: 200.0 mg/kg/injection, schedule: Q01DX009 (ip), vehicle: saline with Tween-80 96 % of control | endpoint: mean survival time, dose: 400.0 mg/kg/injection, schedule: Q01DX009 (ip), vehicle: saline with Tween-80 98 % of control

Nc1nc(N)c2nc(CN(Cc3ccccc3)c3ccc(C(=O)NC(CCC(=O)O)C(=O)O)cc3)cnc2n1 (stereo not given)
inactive: endpoint: mean survival time, dose: 20.0 mg/kg/injection, schedule: Q01DX009 (ip), vehicle: sodium bicarbonate 109 % of control | endpoint: mean survival time, dose: 40.0 mg/kg/injection, schedule: Q01DX009 (ip), vehicle: sodium bicarbonate 114 % of control | endpoint: mean survival time, dose: 80.0 mg/kg/injection, schedule: Q01DX009 (ip), vehicle: sodium bicarbonate 114 % of control | endpoint: mean survival time, dose: 100.0 mg/kg/injection, schedule: Q01DX001 (ip), vehicle: sodium bicarbonate 94 % of control | endpoint: mean survival time, dose: 200.0 mg/kg/injection, schedule: Q01DX001 (ip), vehicle: sodium bicarbonate 91 % of control | endpoint: mean survival time, dose: 400.0 mg/kg/injection, schedule: Q01DX001 (ip), vehicle: sodium bicarbonate 91 % of control

CCOC(=O)c1cnc(SCc2ccccc2)nc1Nc1ccccc1
inactive: [8] 93 % of control | [9] 88 % of control | endpoint: mean survival time, dose: 400.0 mg/kg/injection, schedule: Q01DX001 (ip), vehicle: saline with Tween-80 88 % of control

N#CC(c1cccc([N+](=O)[O-])c1)C(CC(=O)c1ccccc1)c1ccccc1 (stereo not given)
inactive: [1] 95 % of control | [2] 95 % of control | [3] 102 % of control

NP(=O)(OC(c1ccccc1)C12CC3CC(CC(C3)C1)C2)N(CCCl)CCCl (stereo not given)
inactive: endpoint: mean survival time, dose: 62.5 mg/kg/injection, schedule: Q01DX001 (ip), vehicle: other 92 % of control | endpoint: mean survival time, dose: 125.0 mg/kg/injection, schedule: Q01DX001 (ip), vehicle: other 97 % of control | endpoint: mean survival time, dose: 250.0 mg/kg/injection, schedule: Q01DX001 (ip), vehicle: other 102 % of control | endpoint: mean survival time, dose: 500.0 mg/kg/injection, schedule: Q01DX001 (ip), vehicle: other 105 % of control

COC(=O)C[N+]1(C)C2CCC1CC(Cl)C2 (stereo not given)
inactive: endpoint: mean survival time, dose: 12.5 mg/kg/injection, schedule: Q01DX001 (ip), vehicle: saline 109 % of control | [11] 113 % of control

CCC1(O)CC2CN(CCc3c([nH]c4ccccc34)C(C(=O)OC)(c3cc4c(cc3OC)N(C)C3C(O)(C(=O)NCCO)C(O)C5(CC)C=CCN6CCC43C65)C2)C1 (stereo not given)
inactive: endpoint: mean survival time, dose: 0.36 mg/kg/injection, schedule: Q01DX009 (ip), vehicle: water 110 % of control | endpoint: mean survival time, dose: 0.52 mg/kg/injection, schedule: Q04DX003 (ip), vehicle: water 108 % of control | endpoint: mean survival time, dose: 0.86 mg/kg/injection, schedule: Q04DX003 (ip), vehicle: water 119 % of control | endpoint: mean survival time, dose: 1.44 mg/kg/injection, schedule: Q04DX003 (ip), vehicle: water 118 % of control | endpoint: mean survival time, dose: 2.4 mg/kg/injection, schedule: Q04DX003 (ip), vehicle: water 113 % of control

O=C(O)/C=C/c1ccc(Cl)cc1Cl
inactive: [5] 95 % of control | [6] 95 % of control | [7] 86 % of control

Nc1cccc(OCc2ccc([N+](=O)[O-])cc2)c1
inactive: endpoint: mean survival time, dose: 100.0 mg/kg/injection, schedule: Q04DX002 (ip), vehicle: Klucel (hydroxypropylcellulose) (HPC) 86 % of control | endpoint: mean survival time, dose: 200.0 mg/kg/injection, schedule: Q04DX002 (ip), vehicle: Klucel (hydroxypropylcellulose) (HPC) 107 % of control | endpoint: mean survival time, dose: 400.0 mg/kg/injection, schedule: Q04DX002 (ip), vehicle: Klucel (hydroxypropylcellulose) (HPC) 95 % of control

CN(C)N=Nc1ccc(NC=O)cc1
inactive: endpoint: mean survival time, dose: 4.68 mg/kg/injection, schedule: Q01DX009 (ip), vehicle: Klucel (hydroxypropylcellulose) (HPC) 104 % of control | endpoint: mean survival time, dose: 9.37 mg/kg/injection, schedule: Q01DX009 (ip), vehicle: Klucel (hydroxypropylcellulose) (HPC) 115 % of control and 110 % of control
